Consider 8 compounds from ChEMBL document CHEMBL1159230, “Anti-AIDS agents, 18. Sodium and potassium salts of caffeic acid tetramers from Arnebia euchroma as anti-HIV agents” (J Nat Prod, 1995).

Values after ≈ are worked out from the molar mass of the structure shown.

The subject of data set [1] is Human immunodeficiency virus 1. The experiment in a line: Antiviral activity against HIV1 3B infected in human H9 cells after 4 days by p24 antigen ELISA assay. It counts as functional, organism-based. The conditions noted are these: Human immunodeficiency virus 1, 3B, H9, 96 h. On the technique in general: In an ELISA, binding on a coated surface is turned into a signal by an enzyme label.

A short description of data set [2]: Therapeutic index, ratio of IC50 for human H9 cells to EC50 for HIV1 3B. Format: cell-based. Particulars: for Ratio IC50/EC50: h9; for selectivity ratio: H9 cells, read-out: Ratio IC50/EC50.
Data set [3] concerns H9. The experiment in a line: Cytotoxicity against human H9 cells. It counts as cell-based.

Turning to `O=C(O[C@H](Cc1ccc(O)c(O)c1)C(=O)[O-])C1=Cc2cc(O)c(O)cc2[C@@H](c2ccc(O)c(O)c2)C1C(=O)O[C@H](Cc1ccc(O)c(O)c1)C(=O)O.[K+]` (stereo partly drawn), the response in data set [1] was half-maximal at 4 µg/mL (EC50). In addition, the “Ratio IC50/EC50” value in data set [2] came out at 12.5. For the same compound, half-maximal inhibition in data set [3] (IC50) required 50 µg/mL.

In the case of `O=C(O[C@H](Cc1ccc(O)c(O)c1)C(=O)[O-])C1=Cc2cc(O)c(O)cc2[C@@H](c2ccc(O)c(O)c2)C1C(=O)O[C@H](Cc1ccc(O)c(O)c1)C(=O)[O-].[Na+].[Na+]` (stereo partly drawn), in data set [1], the EC50 (commonly the midpoint of the concentration-response curve) was 2.8 µg/mL. The “Ratio IC50/EC50” value in data set [2] is given as 19.6. Also, half-maximal inhibition in data set [3] (IC50) required 55 µg/mL.

The compound `O=C(O[C@H](Cc1ccc(O)c(O)c1)C(=O)[O-])C1=Cc2cc(O)c(O)cc2[C@@H](c2ccc(O)c(O)c2)C1C(=O)O[C@H](Cc1ccc(O)c(O)c1)C(=O)[O-].[K+].[K+]` (stereo partly drawn) came in with an EC50 in data set [1] of 16 µg/mL. Besides, the “Ratio IC50/EC50” value in data set [2] is reported as 3.1. Half-maximal inhibition in data set [3] (IC50) required 50 µg/mL.

The compound `O=c1ccn([C@@H]2O[C@H](CO)[C@@H](O)[C@H]2O)c(=O)[nH]1` [URIDINE] came in with an EC50 in data set [1] of 10 µg/mL (≈ 40.9 µM). Besides, the selectivity ratio in data set [2] is greater than 10.

In turn, `O=C(O[C@H](Cc1ccc(O)c(O)c1)C(=O)O)C1=Cc2cc(O)c(O)cc2[C@@H](c2ccc(O)c(O)c2)C1C(=O)O[C@H](Cc1ccc(O)c(O)c1)C(=O)O` (stereo partly drawn) had an EC50 in data set [1] of 15 µg/mL (≈ 20.9 µM). For the same compound, in data set [2], the “Ratio IC50/EC50” value was 3.3. 50 µg/mL (≈ 69.6 µM) corresponded to half-maximal inhibition in data set [3] (IC50).

The compound `O=C(O[C@H](Cc1ccc(O)c(O)c1)C(=O)[O-])C1=Cc2cc(O)c(O[C@@H]3O[C@H](CO)[C@@H](O)[C@H](O)[C@H]3O)cc2[C@@H](c2ccc(O)c(O)c2)C1C(=O)O[C@H](Cc1ccc(O)c(O)c1)C(=O)[O-].[K+].[Na+]` (stereo partly drawn) returned an EC50 in data set [1] of 30 µg/mL. Also, the selectivity ratio in data set [2] stood at 2. Also, it took 60 µg/mL to reach half-maximal inhibition in data set [3] (IC50).

In data set [1], `O=C(O[C@H](Cc1ccc(O)c(O)c1)C(=O)O)C1=Cc2cc(O)c(O)cc2[C@H](c2ccc(O)c(O)c2)[C@H]1C(=O)O[C@H](Cc1ccc(O)c(O)c1)C(=O)O` registered an EC50 of 13 µg/mL (≈ 18.1 µM). Besides, in data set [2], the “Ratio IC50/EC50” value came to 3.5. Moreover, the IC50 – broadly, the concentration that inhibits the measured activity by half – in data set [3] is 45 µg/mL (≈ 62.6 µM).

In the case of `O=C(O[C@H](Cc1ccc(O)c(O)c1)C(=O)[O-])C1=Cc2cc(O)c(O)cc2[C@H](c2ccc(O)c(O)c2)[C@H]1C(=O)O[C@H](Cc1ccc(O)c(O)c1)C(=O)O.[K+]`, the midpoint of the response in data set [1], the EC50, lay at 1.5 µg/mL. The “Ratio IC50/EC50” value in data set [2] was 33.3. Further, inhibition in data set [3] was half-maximal at 50 µg/mL (IC50).
